Measurements published in patent US20230114728A1 (Venatorx Pharmaceuticals, Inc., priority 2019, published 2023).
pEC50: −log10 of the molar value. ≈ marks a conversion by molar mass, not a printed value.

Key:
E. coli K12 PBP3 = biological target: T1, E. coli K12 PBP3 (Escherichia coli, UniProt P0AD68); assay: biochemical; assay type: binding
T1 construct: made in house
Method in brief: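 Fluorescence polarization (ex 490/em 520 nm) competition of inhibitors against Bocillin-FL at 0.1 μM, read up to 60 min. Final PBP levels: E. coli PBP3 1.5 μM; A. baumannii PBP2 2.5 μM, PBP3 0.2 μM in Tris pH 8.0/NaCl/glycerol/Tween 20; N. gonorrhoeae PBP2 […] in Hepes pH 8.0/NaCl/glycerol. EC50 = concentration halving PBP-bound Bocillin-FL.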

P. aeruginosa PBP3 = biological target: T2, P. aeruginosa PBP3 (Pseudomonas aeruginosa, UniProt G3XD46); assay: Bocillin-FL fluorescence polarization competition binding assay, P. aeruginosa PBP3; conditions: fluorescence polarization competition binding assay using Bocillin-FL
T2 construct: made in house
T2 sequence (G3XD46 whole entry): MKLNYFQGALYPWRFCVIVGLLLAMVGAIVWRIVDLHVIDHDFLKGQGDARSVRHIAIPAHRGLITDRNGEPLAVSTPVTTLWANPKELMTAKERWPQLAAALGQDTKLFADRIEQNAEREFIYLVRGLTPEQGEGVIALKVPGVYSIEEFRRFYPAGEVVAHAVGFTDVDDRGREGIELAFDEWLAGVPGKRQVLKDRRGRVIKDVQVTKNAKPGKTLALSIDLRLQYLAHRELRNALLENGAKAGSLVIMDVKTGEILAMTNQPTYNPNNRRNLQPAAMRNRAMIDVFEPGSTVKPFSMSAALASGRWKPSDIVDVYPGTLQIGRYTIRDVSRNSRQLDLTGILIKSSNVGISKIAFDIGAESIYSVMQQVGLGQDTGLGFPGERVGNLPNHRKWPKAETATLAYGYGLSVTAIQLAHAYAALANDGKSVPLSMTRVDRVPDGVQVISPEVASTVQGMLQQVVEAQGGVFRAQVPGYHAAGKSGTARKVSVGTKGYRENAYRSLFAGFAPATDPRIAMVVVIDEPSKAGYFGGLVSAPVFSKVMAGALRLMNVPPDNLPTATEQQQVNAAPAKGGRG
Method in brief: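 Binding of boronic acid inhibitors to purified Pseudomonas aeruginosa (PA01) PBP3 was measured by fluorescence polarization competition with Bocillin-FL, a fluorescent penicillin V. Reactions of 80 μl contained 0.75 μM PBP3 and 0.1 μM Bocillin-FL in 50 mM Hepes (pH 8.0), 300 mM NaCl and 5% (v/v) glycerol, in black 384-well plates. FP (Excitation 490 nm, Emission 520 nm) was read for up to 60 minutes. EC50 is the concentration that halves PBP-bound Bocillin-FL.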

[1] = Bocillin-FL fluorescence polarization competition binding assay, A. baumannii PBP3; conditions: fluorescence polarization competition binding assay using Bocillin-FL; column 3; read-out: 4. baumannii PBP1a Potency
Description: (§1) Example I: Experimental Method for Penicillin-Binding Protein Binding Assays with Bocillin-FL Via Fluorescence Polarization
(§2) To determine the ability of boronic acid-based test PBP inhibitors to bind Penicillin Binding Proteins (PBPs), Bocillin-FL (fluorescently-labeled penicillin V; ThermoFisher Scientific) was used in a fluorescence polarization (FP) competition binding assay to assess inhibitor binding to PBP2, PBP3 or PBP4 from Escherichia coli (K12), PBP3 from Pseudomonas aeruginosa (PA01), PBP1a, PBP2 and PBP3 from Acinetobacter baumannii (ATCC 19606), and PBP2 from Neiserria gonorrheae (FA19). PBPs were cloned and purified as described previously (E. coli PBPs, King, D. T, et al., ACS Infectious Diseases 2015, 1, 175-184; P. aeruginosa PBP3, Han et. al., PNAS 2010, 107 (51), 22002-22007; A. baumannii PBPs, Penwell et. al., Antimicrob. Agents Chemother. 2015, 59 (3), 1680-1689; N. gonorrhoeae PBP2, Singh et. al., J Biol. Chem. 2019, 294 (38), 14020-14032). To establish assay conditions for competition binding, enzyme titration/saturation binding experiments were initially performed. Bocillin-FL was prepared at 0.2 μM in a buffer comprised of 50 mM Hepes (pH 8.0), 300 mM NaCl and 5% (v/v) glycerol for reactions with E. coli, P. aeruginosa and N. gonorrhoeae PBPs, and 25 mM Tris (pH 8.0), 200 mM NaCl and 10% (v/v) glycerol and 0.005% (v/v) Tween 20 for reactions with A. baumannii PBPs. Saturation binding was performed by mixing 40 μl of PBP solutions ranging in concentrations from 0-24 μM with 40 μl of the 0.2 μM Bocillin-FL solution, in individual wells of a black 384-well microplate. FP was measured immediately upon mixing (Excitation, 490 nm; Emission, 520 nm; g-factor, 0.96), using a Cytation3 (BioTek) microplate reader and measured continuously for up to 120 minutes. […] The competition binding assay (80 μl final volume) was validated using beta-lactams and PBPs at final concentrations of: 1.5 μM, E. coli PBP3; 0.75 μM, P. aeruginosa PBP3; 1 μM A. baumannii PBP1a; 2.5 μM A. baumannii PBP2; 0.2 μM A. baumannii PBP3; and […] N. gonorrhoeae PBP2. Bocillin-FL was at 0.1 μM (0.05 μM with A. baumannii PBP1a) and beta-lactam concentrations ranged from 0-1000 μM. […] Bocillin-FL was added and the FP immediately measured for up to 60 minutes (90 minutes for E. coli PBP2). […] The beta-lactam potency was reported as the concentration of beta-lactam required to reduce the amount of PBP bound-Bocillin-FL by 50% (EC50). […] Binding assays for boronic acid PBP inhibitors were performed in an identical fashion for the respective PBPs

A. baumannii ATCC 19606 = assay: Broth microdilution MIC in CAMHB; assay type: cell-based; conditions: Acinetobacter baumannii, ATCC19606; MHB; read-out: Minimum Inhibitory Concentration, A. baumannii ATCC 19606
Method in brief: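 MIC, read by eye, is the lowest compound concentration giving no bacterial growth after 16-20 h at 37° C. Test compounds are serially diluted 2-fold in CAMHB and seeded with 2-8×10^5 CFU/mL of bacteria taken from a 3-5 h shaking culture, following CLSI methods.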

E. coli 901C = assay: Broth microdilution MIC in CAMHB; assay type: cell-based; conditions: Escherichia coli; E. coli 901C (hyper-permeable); MHB; read-out: Minimum Inhibitory Concentration, E. coli 901C
Method in brief: (§3)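 CLSI broth microdilution in CAMHB: 2-fold compound dilutions inoculated at 2-8×10^5 CFU/mL from 3-5 h log-phase cultures. Incubated at 37 °C for 16-20 h (Enterobacteriaceae, Pseudomonas); MIC read visually as lowest concentration without growth. Strains include hyper-permeable and efflux-deficient mutants.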

E. coli AG100A = assay: Broth microdilution MIC in CAMHB; assay type: cell-based; conditions: Escherichia coli, read-out: Minimum Inhibitory Concentration, E. coli AG100A
Method in brief: as §3

E. coli AG100 = assay: Broth microdilution MIC in CAMHB; assay type: cell-based; conditions: Escherichia coli; E. coli AG100 (wild-type parent); MHB; read-out: Minimum Inhibitory Concentration, E. coli AG100
Method in brief: as §3

E. coli ATCC 25922 = assay: Broth microdilution MIC in CAMHB; assay type: cell-based; conditions: Escherichia coli, ATCC25922; E. coli ATCC 25922; MHB; read-out: Minimum Inhibitory Concentration, E. coli 25922
Method in brief: as §3

E. coli D22 = assay: Broth microdilution MIC in CAMHB; assay type: cell-based; conditions: Escherichia coli; E. coli D22 (hyper-permeable); MHB; read-out: Minimum Inhibitory Concentration, E. coli D22
Method in brief: as §3

[2] = tested on: K. pneumoniae 848844 producing SHV-11 and KPC-2; assay: Broth microdilution MIC in CAMHB; assay type: cell-based; conditions: Klebsiella pneumoniae, read-out: Minimum Inhibitory Concentration, K. pneumoniae 848844
Method in brief: as §3

[3] = tested on: K. pneumoniae SI-117 producing VIM-1; assay: Broth microdilution MIC in CAMHB; assay type: cell-based; conditions: Klebsiella pneumoniae, read-out: Minimum Inhibitory Concentration, K. pneumoniae SI-117
Method in brief: as §3

[4] = tested on: K. pneumoniae UMM producing SHV-5 and KPC-2; assay: Broth microdilution MIC in CAMHB; assay type: cell-based; conditions: Klebsiella pneumoniae, read-out: Minimum Inhibitory Concentration, K. pneumoniae UMM
Method in brief: as §3

[5] = tested on: P. aeruginosa (ΔmexAB-oprM); assay: Broth microdilution MIC in CAMHB; assay type: cell-based; conditions: Pseudomonas aeruginosa, read-out: Minimum Inhibitory Concentration, P. aeruginosa ΔmexAB-OprM
Method in brief: as §3

P. aeruginosa ATCC 27853 = assay: Broth microdilution MIC in CAMHB; assay type: cell-based; conditions: Pseudomonas aeruginosa, ATCC27853; MHB; read-out: Minimum Inhibitory Concentration, P. aeruginosa ATCC 27853
Method in brief: as §3

P. aeruginosa ATCC 35151 = assay: Broth microdilution MIC in CAMHB; assay type: cell-based; conditions: Pseudomonas aeruginosa, ATCC35151; MHB; hyper-permeable strain; read-out: Minimum Inhibitory Concentration, P. aeruginosa ATCC 35151
Method in brief: as §3

N. gonorrhoeae PBP2 = biological target: T3, N. gonorrhoeae PBP2 (Neisseria gonorrhoeae, UniProt P08149); assay: Bocillin-FL fluorescence polarization competition binding assay, N. gonorrhoeae PBP2; conditions: N. gonorrhoeae PBP2; assay validation with beta-lactams; read-out: EC50 (concentration of beta-lactam required to reduce the amount of PBP bound-Bocillin-FL by 50%)
T3 construct: made in house
T3 sequence (P08149 whole entry): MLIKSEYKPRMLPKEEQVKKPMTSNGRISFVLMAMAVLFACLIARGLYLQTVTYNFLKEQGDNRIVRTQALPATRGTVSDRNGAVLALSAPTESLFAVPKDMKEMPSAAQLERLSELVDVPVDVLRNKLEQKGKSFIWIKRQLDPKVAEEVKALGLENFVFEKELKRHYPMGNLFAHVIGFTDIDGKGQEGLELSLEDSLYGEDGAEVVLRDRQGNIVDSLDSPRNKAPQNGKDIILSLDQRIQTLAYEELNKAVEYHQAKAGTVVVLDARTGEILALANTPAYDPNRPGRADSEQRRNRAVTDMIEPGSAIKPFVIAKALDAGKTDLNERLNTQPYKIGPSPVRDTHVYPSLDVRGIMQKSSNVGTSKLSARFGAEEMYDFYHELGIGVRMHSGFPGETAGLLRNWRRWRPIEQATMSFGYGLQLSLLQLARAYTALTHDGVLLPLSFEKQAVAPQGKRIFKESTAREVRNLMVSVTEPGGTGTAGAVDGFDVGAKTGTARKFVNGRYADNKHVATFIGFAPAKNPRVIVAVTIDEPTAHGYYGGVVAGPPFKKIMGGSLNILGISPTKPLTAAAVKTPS
Description: as §1, §2

T1 sequence (P0AD68 1-577): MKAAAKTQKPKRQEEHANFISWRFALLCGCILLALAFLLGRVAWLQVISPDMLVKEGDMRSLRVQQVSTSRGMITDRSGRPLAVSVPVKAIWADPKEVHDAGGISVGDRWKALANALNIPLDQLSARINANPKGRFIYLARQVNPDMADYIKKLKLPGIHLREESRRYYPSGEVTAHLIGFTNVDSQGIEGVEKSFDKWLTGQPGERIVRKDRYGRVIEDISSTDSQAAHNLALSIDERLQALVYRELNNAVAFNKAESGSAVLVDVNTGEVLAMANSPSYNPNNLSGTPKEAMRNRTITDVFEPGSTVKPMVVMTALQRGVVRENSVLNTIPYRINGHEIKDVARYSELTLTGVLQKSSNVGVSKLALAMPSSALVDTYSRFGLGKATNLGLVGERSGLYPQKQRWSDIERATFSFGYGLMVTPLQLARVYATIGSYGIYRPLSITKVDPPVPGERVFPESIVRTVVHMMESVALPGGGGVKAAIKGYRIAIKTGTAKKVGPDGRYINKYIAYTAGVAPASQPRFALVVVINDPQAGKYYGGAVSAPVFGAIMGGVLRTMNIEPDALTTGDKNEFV

Row | SMILES | pEC50 (E. coli K12 PBP3) | P. aeruginosa PBP3 Potency (P. aeruginosa PBP3) | pEC50 [1] | MIC (A. baumannii ATCC 19606) | MIC (E. coli 901C) | MIC (E. coli AG100A) | MIC (E. coli AG100) | MIC (E. coli ATCC 25922) | MIC (E. coli D22) | MIC [2] | MIC [3] | MIC [4] | MIC [5] | MIC (P. aeruginosa ATCC 27853) | MIC (P. aeruginosa ATCC 35151) | pEC50 (N. gonorrhoeae PBP2)
1 | C[C@H]1CN(CCN)C(=O)C(=O)N1C(=O)N[C@@H](C(=O)N[C@H]1Cc2cccc(C(=O)O)c2OB1O)c1ncc(O)cc1F [Example 14, (R)-3-((R)-2-((S)-4-(2-aminoethyl)-6-methyl-2,3-dioxopiperazine-1-carboxamido)-2-(3-fluoro-5-hydroxypyridin-2-yl)acetamido)-2-hydroxy-3,4-dihydro-2H-benzo[e][1,2]oxaborinine-8-carboxylic acid] | > 4.52 | D (D represents a potency <10 μM) | > 5.00 | > 128 µg/mL | 0.5 to 1 µg/mL (≈ 0.874 to 1.75 µM) | 0.5 to 1 µg/mL (≈ 0.874 to 1.75 µM) | 8 to 16 µg/mL (≈ 14 to 28 µM) | 8 to 16 µg/mL (≈ 14 to 28 µM) | 2 to 4 µg/mL (≈ 3.49 to 6.99 µM) | 32 to 64 µg/mL (≈ 55.9 to 112 µM) | 32 to 64 µg/mL (≈ 55.9 to 112 µM) | 8 to 16 µg/mL (≈ 14 to 28 µM) | 8 to 16 µg/mL (≈ 14 to 28 µM) | > 128 µg/mL | 0.5 to 1 µg/mL (≈ 0.874 to 1.75 µM) | –
2 | C=CC1=C(C(=O)O)N2C(=O)[C@@H](NC(=O)/C(=N\OCC(=O)O)c3csc(N)n3)[C@H]2SC1 [cefixime, reference compound] | – | – | – | – | – | – | – | – | – | – | – | – | – | – | – | 6.59
